Values of other authors as cited in PMC9138102, “The Role of ZIP9 and Androgen Receptor in the Establishment of Tight Junctions between Adult Rat Sertoli Cells” (Biology, 2022).

Test system: Sertoli cell line 93RS2
Settings: 93RS2 cells; ZIP9-mediated; cited from earlier work
Text: The testosterone receptor responsible for the stimulation of the expression of TJ proteins and the formation of the BTB, however, remains to be defined. The classical androgen receptor (AR) has for decades been undisputed as the mediator of all testosterone effects, including the stimulation of TJ formation at the BTB; however, recent investigations have challenged this assumption. ZIP9, a rather recently identified membrane-bound androgen receptor and zinc transporter from the family of ZRT/IRT-like proteins (ZRT = zinc-regulated transporter; IRT = iron-regulated transporter) ...

## C[C@]12CC[C@H]3[C@@H](CCC4=CC(=O)CC[C@@]43C)[C@@H]1CC[C@@H]2O [testosterone]
  Expression of claudin-1 and claudin-5: increased expression of claudin-1 and claudin-5
  TJ formation: enhanced TJ formation
